Source: paper PMC8073976, “Towards Targeted Alpha Therapy with Actinium-225: Chelators for Mild Condition Radiolabeling and Targeting PSMA—A Proof of Concept Study” (Cancers, 2021)

What was measured:
[1] = type: physicochemical; settings: pH 6
From the text: Unfortunately, a suitable reversed-phase iTLC system for the ligands mcp-M-PSMA and mcp-D-PSMA was not found so far to determine the radiochemical yields. The resolution of our standard system was not efficient, most likely due to the bigger size of these molecules compared to the basic chelators, different protonation steps and possible conformational structures. […] Additionally, the stability of the ^225Ac-labeled conjugates in acetate buffer was investigated by HPLC analyses over a period of ten days.
Actinium-225 was purchased as a 0.1 M HCl solution from ITM Munich and used without purification. Stem solutions of all ligands were prepared in concentrations of 10^−2 M and diluted to 10^−6 M using 0.2 M ammonium acetate buffer at pH 6. For concentration-dependent labeling experiments, 10 µL of each ligand stem solution was incubated with 100 kBq of actinium-225 (1–5 µL) and the total volume was adjusted to 100 µL with 0.2 M ammonium acetate buffer at pH 6. For stability analyses, 50 µL of the buffer volume were replaced by 50 µL of 0.2 M ascorbic acid or 50 µL of 2,5-dihydroxy benzoic acid, respectively. […]
All samples were incubated for one hour at room temperature and analyzed afterward. […] Radioactivity was measured in Isomed 2100 dose calibrator. Low radioactivity count rates were determined in Isomed 2160 sodium iodide detector. […]

[2] = 225Ac-labeling of ligands in serial dilution, radiochemical yield and 7-day stability by TLC; type: physicochemical; settings: 100 kBq actinium-225, 0.2 M ammonium acetate buffer pH 6, after seven days; for RCY NP (7 d): normal phase TLC, silica, 50 mM EDTA pH 7; for RCY RP (7 d): reversed-phase TLC, Alugram RP-CN, acetonitrile/water 7/3
Description: To compare the efficiency of the synthesized chelators and their conjugates, 100 kBq of actinium-225 were incubated with each ligand at different concentrations (10^−5 M; 10^−6 M; 10^−7 M). The radiochemical yield was determined after one hour of reaction time using normal phase and reversed-phase TLC. Whereas one TLC-system was designed to move free actinium-225 with the solvent front, the other system was developed only to move the actinium-225 labeled complexes. Concentration-dependent radiochemical yields for all ligands and 7-day-longterm yields, which were calculated using both TLC systems, are presented in Table 1.
Actinium-225 was purchased as a 0.1 M HCl solution from ITM Munich and used without purification. Stem solutions of all ligands were prepared in concentrations of 10^−2 M and diluted to 10^−6 M using 0.2 M ammonium acetate buffer at pH 6. For concentration-dependent labeling experiments, 10 µL of each ligand stem solution was incubated with 100 kBq of actinium-225 (1–5 µL) and the total volume was adjusted to 100 µL with 0.2 M ammonium acetate buffer at pH 6. For stability analyses, 50 µL of the buffer volume were replaced by 50 µL of 0.2 M ascorbic acid or 50 µL of 2,5-dihydroxy benzoic acid, respectively. Labeling for cell-binding studies was performed using 1.5 MBq of actinium-225 and 4 nmol of the respective PSMA ligand in a total volume of 400 µL adjusted with 0.2 M ammonium acetate buffer at pH 6. Radiolabeling for cell survival studies and all in vivo experiments were performed using 1.5 MBq of actinium-225 and 3.3 nmol of the respective ligand.
All samples were incubated for one hour at room temperature and analyzed afterward. TLC analyses were carried out in two different systems, normal phase on silica plates in 50 mM EDTA solution (pH 7) and reversed-phase on Alugram RP-CN in acetonitrile/water (7/3). TLC plates were imaged using a phosphoimager Amersham Typhoon 5 Scanner (Cytiva Europe GmbH, Freiburg, Germany) after a decay time of at least 7 h. Analytical HPLC was performed using a Jasco HPLC system with RITA analyzer (Elysia-raytest GmbH, Straubenhardt, Germany) for gamma detection on a Phenomenex Phenyl-Hexyl column in water/acetonitrile (+ 0.1% TFA). Radioactivity was measured in Isomed 2100 dose calibrator. Low radioactivity count rates were determined in Isomed 2160 sodium iodide detector. More precise measurements and nuclide identification were carried out on an activity- and efficiency-calibrated HPGe detector CryoPulse 5 (Canberra).

[3] = tested on: LNCaP cells; experiment: Colony formation assay; type: cell-based, human; settings: for Percentage amount of colonies referred to the non-radioactive control: 8 days colony growth
Description: LNCaP cells were plated in 6-well cell culture microplates (Greiner Bio-One GmbH, Frickenhausen, Germany) at a density of 6 × 10^3 cells/2 mL/well. […] After 1 or 4 h of incubation, the cell culture media was removed and fresh media was added to each well. Plates were then incubated at 37 °C for 8 days and re-fed every 3 to 4 days. […] The plates were scanned with an Amersham Typhoon 5 Scanner (Cytiva Europe GmbH, Freiburg, Germany) and the colonies were counted using the Image-Quant TL software (Version 8.1, Cytiva Europe GmbH, Freiburg, Germany).

[4] = tested on: LNCaP tumor-bearing mice; experiment: Biodistribution in LNCaP tumor-bearing SCID mice; type: in vivo, mouse
From the text: The SCID male mice (ENVIGO, Indianapolis, IN, USA) 6–8 weeks old were subcutaneously injected into the right flank with 10 × 10^6 LNCaP cells (ATCC, Manassas, VA, USA) mixed with Matrigel Matrix (Corning, Corning, NY, USA) at a 1:1 ratio. The tumor growth was continuously monitored by caliper-based measurements. When the tumor volume reached 200–300 mm^3 (i.e., 5–6 weeks after the inoculation of cells), the mice were used for biodistribution studies. The experimental animals were housed in a specific-pathogen-free animal facility. All experiments with animals were performed in accordance with appropriate legal norms (Czech Law No. 246/1992) and with the approval of the Ministry of Education, Youth and Sports (MSMT-35035/2019-3) and approval of the Ethical Committee of Faculty of Medicine and Dentistry, Palacky University in Olomouc. The number of animals was reduced as much as possible (n = 4 per group and time point) for all in vivo experiments.
For biodistribution studies, the radiotracers were diluted with saline. The prepared radiotracers were applied retro-orbitally (r.o.) to the experimental animals at a dose of 50 kBq per mouse corresponding to 10 pmol of the peptide. The tracer injection was carried out under 2% isoflurane anesthesia (FORANE, Abbott Laboratories, Abbott Park, IL, USA) to minimize animal suffering and to prevent animal motion. The mice were sacrificed by cervical dislocation 10 min, 60 min and 24 h post-injection and organs of interest (blood, spleen, pancreas, stomach, intestine, kidneys, liver, heart, lungs, muscle, bone and tumor) were collected. The samples were weighed and the activity was measured on an automatic gamma counter. The radiotracer accumulation was expressed as a percentage of injected dose per gram (%ID/g) of the corresponding organ.

[5] = logD7.4 determination; type: physicochemical; settings: pH 7.4, 225Ac complex
[6] = tested on: LNCaP cells; experiment: CyQUANT direct cell proliferation assay; type: cell-based, human; settings: highest applied dose, 4 h of exposure, cell number 24 h after treatment by DNA staining
Description: The treatment response on cellular proliferation was assessed using the CyQUANT direct cell proliferation assay (Thermo Fisher Scientific, Waltham, MA, USA). For this purpose, LNCaP cells were plated in black 96 well cell culture microplates (Greiner Bio-One GmbH, Frickenhausen, Germany) at a density of 2 × 10^4 cells/0.05 mL/well. […] After 1 or 4 h of incubation, the cell culture media was removed and fresh media was added to each well. Cell numbers were subsequently determined 24 h later as per the manufacturer’s protocol. The fluorescence intensity was measured with the Varioskan Flash microplate reader (Thermo Fisher Scientific, Waltham, MA, USA).

[7] = 1 h incubation time, 0.05 kBq/mL
[8] = 1 h incubation time, 0.5 kBq/mL
[9] = 4 h incubation time, 0.05 kBq/mL
[10] = 4 h incubation time, 0.5 kBq/mL
[11] = LNCaP tumor-bearing SCID mice, 24 h p.i.

Row | Compound | RCY NP (7 d) ([2]; ligand 10^−5 M) | RCY RP (7 d) ([2]; ligand 10^−5 M) | RCY NP (7 d) ([2]; ligand 10^−6 M) | RCY RP (7 d) ([2]; ligand 10^−6 M) | RCY NP (7 d) ([2]; ligand 10^−7 M) | RCY RP (7 d) ([2]; ligand 10^−7 M) | other results
1 | O=C(O)CC[C@H](NC(=O)N[C@H](CCCCNC(=O)[C@@H](Cc1ccc2ccccc2c1)NC(=O)C1CCC(CNC(=O)CCCCn2cc(COc3cc(CN4CCOCCOCCN(Cc5cccc(C(=O)O)n5)CCOCCOCC4)nc(C(=O)O)c3)nn2)CC1)C(=O)O)C(=O)O (mixture of isomers) [mcp-M-PSMA, (3RS,10RS,14S)-1-((1s,4S)-4-((5-(4-(((2-Carboxy-6-((16-((6-carboxypyridin-2-yl)methyl)-1,4,10,13-tetraoxa-7,16-diazacyclooctadecan-7-yl)methyl)pyridin-4-yl)oxy)methyl)-1H-1,2,3-triazol-1-yl)pentanamido)methyl)cyclohexyl)-3-(naphthalen-2-ylmethyl)-1,4,12-trioxo-2,5,11,13-tetraazahexadecane-10,14,16-tricarboxylic acid] |  |  |  |  |  |  | stable in acetate buffer [1]: at least 48 h
2 | O=C([O-])c1cccc(CN2CCOCCOCCN(Cc3cccc(C(=O)[O-])n3)CCOCCOCC2)n1.[225Ac+3] [[^225Ac]Ac-macropa, reference compound] | 99% | 99% | 99% | 99% | 99% | 99% | 
3 | O=C(O)CC[C@H](NC(=O)N[C@@H](CCCCNC(=O)[C@H](Cc1ccc2ccccc2c1)NC(=O)[C@H]1CC[C@H](CNC(=O)CCCCn2cc(COc3cc(CN4CCOCCOCCN(Cc5cc(OCc6cn(CCCCC(=O)NC[C@H]7CC[C@H](C(=O)N[C@@H](Cc8ccc9ccccc9c8)C(=O)NCCCC[C@H](NC(=O)N[C@@H](CCC(=O)O)C(=O)O)C(=O)O)CC7)nn6)cc(C(=O)O)n5)CCOCCOCC4)nc(C(=O)O)c3)nn2)CC1)C(=O)O)C(=O)O [[^225Ac]Ac-mcp-D-PSMA, metal not drawn] | 99% |  | 99% |  | 95% |  | inhibition of colony formation ([3]; 5 and 50 kBq/mL, 4 h): ~100%; Percentage amount of colonies referred to the non-radioactive control [3, 7]: 75.0%; Percentage amount of colonies referred to the non-radioactive control [3, 8]: 3.8%; Percentage amount of colonies referred to the non-radioactive control ([3]; 1 h incubation time, 5 kBq/mL): 3.1%; Percentage amount of colonies referred to the non-radioactive control ([3]; 1 h incubation time, 50 kBq/mL): 0.8%; Percentage amount of colonies referred to the non-radioactive control [3, 9]: 49.1%; Percentage amount of colonies referred to the non-radioactive control [3, 10]: 6.2%; Percentage amount of colonies referred to the non-radioactive control ([3]; 4 h incubation time, 5 kBq/mL): 0.5%; Percentage amount of colonies referred to the non-radioactive control ([3]; 4 h incubation time, 50 kBq/mL): 0.4%; Tumor-to-blood ratio ([4]; mouse, in vivo): 158.11; tumor-to-muscle ratio ([4]; mouse, in vivo): 275.77; logD7.4 [5]: −2.5 ± 0.1; decrease of relative cell number [6]: approximately one third
4 | C#CCOc1cc(CN2CCOCCOCCN(Cc3cc(OCC#C)cc(C(=O)[O-])n3)CCOCCOCC2)nc(C(=O)[O-])c1.[225Ac+3] [[^225Ac]Ac-mcp-D-click] | 99% | 99% | 99% | 94% | 50% | 40% | 
5 | O=C(O)CCCCn1cc(COc2cc(CN3CCOCCOCCN(Cc4cccc(C(=O)[O-])n4)CCOCCOCC3)nc(C(=O)[O-])c2)nn1.[225Ac+3] [[^225Ac]Ac-mcp-M-COOH] | 99% | 99% | 99% | 99% | 99% | 96% | 
6 | O=C(O)CC[C@H](NC(=O)N[C@@H](CCCCNC(=O)[C@H](Cc1ccc2ccccc2c1)NC(=O)[C@H]1CC[C@H](CNC(=O)CCCCn2cc(COc3cc(CN4CCOCCOCCN(Cc5cccc(C(=O)O)n5)CCOCCOCC4)nc(C(=O)O)c3)nn2)CC1)C(=O)O)C(=O)O [[^225Ac]Ac-mcp-M-PSMA, metal not drawn] | 99% |  | 99% |  | 99% |  | Percentage amount of colonies referred to the non-radioactive control [3, 7]: 107.2%; Percentage amount of colonies referred to the non-radioactive control [3, 8]: 91.8%; Percentage amount of colonies referred to the non-radioactive control ([3]; 1 h incubation time, 5 kBq/mL): 19.4%; Percentage amount of colonies referred to the non-radioactive control ([3]; 1 h incubation time, 50 kBq/mL): 1.4%; Percentage amount of colonies referred to the non-radioactive control [3, 9]: 116.8%; Percentage amount of colonies referred to the non-radioactive control [3, 10]: 57.2%; Percentage amount of colonies referred to the non-radioactive control ([3]; 4 h incubation time, 5 kBq/mL): 5.3%; Percentage amount of colonies referred to the non-radioactive control ([3]; 4 h incubation time, 50 kBq/mL): 0.9%; Tumor-to-blood ratio [4, 11]: 188.42; tumor-to-muscle ratio [4, 11]: 310.82; logD7.4 [5]: −2.8 ± 0.1; decrease of relative cell number [6]: approximately one third
7 | C#CCOc1cc(CN2CCOCCOCCN(Cc3cccc(C(=O)[O-])n3)CCOCCOCC2)nc(C(=O)[O-])c1.[225Ac+3] [[^225Ac]Ac-mcp-M-click] | 99% | 99% | 99% | 99% | 58% | 55% | 
